Experimental findings from patent publication US20260315464A1, “COMPOSITIONS, METHODS, AND SYSTEMS FOR MODULATING SPLICING OF MSH3” (REVIR THERAPEUTICS, INC., priority 2023, published 2026) are described below.

The subject of the experiment is MSH3. Put plainly: QPCR assay for levels of MSH3 upon compound treatment in HEK293T or AD293 cells (fold-change of MSH3 transcript, EC50 of MSH3 downregulation; total MSH3 exons 13/14, exons 20/21; Table 8). The settings on record: Homo sapiens, fold-change of the MSH3 transcript, normalized to GAPDH; for mrna remaining at 1 µM: 1 μM compound; for mrna remaining at 10 µM: 10 μM compound. The experiment is classed as cell-based. The procedure, abridged: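 MSH3 mRNA was quantified by TaqMan qPCR covering exons 13/14, exons 20/21, exon 13/PE14A and exon 20/PE21A, with GAPDH as reference. Cells used were HEK293T or AD293, treated with compound at 1 μM and […].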

Each structure is given as a SMILES string.

For the compound `CN(c1ccc(N2Cc3c(F)cc(-c4cnn(CC(C)(C)O)n4)cc3C2=O)nn1)C1CC(C)(C)NC(C)(C)C1` [Compound 633, 4-fluoro-6-(2-(2-hydroxy-2-methylpropyl)-2H-1,2,3-triazol-4-yl)-2-(6-(methyl(2,2,6,6-tetramethylpiperidin-4-yl)amino)pyridazin-3-yl)isoindolin-1-one], the mrna remaining at 1 µM was 109% and the mrna remaining at 10 µM was determined as 89%.

Take `CN(c1ccc(N2Cc3c(F)cc(-c4cnn(CC(C)(C)O)n4)cc3C2=O)nn1)[C@H]1C[C@]2(C)CC[C@](C)(C1)N2` [Compound 634, 2-(6-(((1R,3s,5S)-1,5-dimethyl-8-azabicyclo[3.2.1]octan-3-yl)(methyl)amino)pyridazin-3-yl)-4-fluoro-6-(2-(2-hydroxy-2-methylpropyl)-2H-1,2,3-triazol-4-yl)isoindolin-1-one]: the mrna remaining at 1 µM was determined as 63% and the mrna remaining at 10 µM is 76%.

For the compound `CC(C)(O)Cn1ncc(-c2cc(F)c3c(c2)C(=O)N(c2ccc(OC4CC(C)(C)NC(C)(C)C4)nn2)C3)n1` [Compound 635, 4-fluoro-6-(2-(2-hydroxy-2-methylpropyl)-2H-1,2,3-triazol-4-yl)-2-(6-((2,2,6,6-tetramethylpiperidin-4-yl)oxy)pyridazin-3-yl)isoindolin-1-one], the mrna remaining at 1 µM turned out to be 54% and the mrna remaining at 10 µM is 117%.

Consider `C[C@@H]1CN(c2ccc(N3Cc4c(F)cc(-c5nn(C)nc5Cl)cc4C3=O)nn2)C[C@H](C)N1` [Compound 636, 6-(5-chloro-2-methyl-2H-1,2,3-triazol-4-yl)-2-(6-((3S,5R)-3,5-dimethylpiperazin-1-yl)pyridazin-3-yl)-4-fluoroisoindolin-1-one], for which the mrna remaining at 1 µM came out at 95% and the mrna remaining at 10 µM was 41%.

For the compound `Cn1nc(Cl)c(-c2cc(F)c3c(c2)C(=O)N(c2ccc(N4CCN[C@@H](C(C)(C)C)C4)nn2)C3)n1` [Compound 637, (S)-2-(6-(3-(tert-butyl)piperazin-1-yl)pyridazin-3-yl)-6-(5-chloro-2-methyl-2H-1,2,3-triazol-4-yl)-4-fluoroisoindolin-1-one], the mrna remaining at 1 µM amounted to 150% and the mrna remaining at 10 µM is 31%.

`CC(C)[C@@H]1CN(c2ccc(N3Cc4c(F)cc(-c5nn(C)nc5Cl)cc4C3=O)nn2)CCN1` [Compound 638, (R)-6-(5-chloro-2-methyl-2H-1,2,3-triazol-4-yl)-4-fluoro-2-(6-(3-isopropylpiperazin-1-yl)pyridazin-3-yl)isoindolin-1-one]: the mrna remaining at 1 µM was 112% and the mrna remaining at 10 µM was determined as 22%.

Regarding `Cc1nn(C)nc1-c1cc(F)c2c(c1)C(=O)N(c1ccc(N3CCNC(C)CC3)nn1)C2` (centres unmarked) [Compound 639, 6-(2,5-dimethyl-2H-1,2,3-triazol-4-yl)-4-fluoro-2-(6-(5-methyl-1,4-diazepan-1-yl)pyridazin-3-yl)isoindolin-1-one], the mrna remaining at 1 µM worked out at 118% and the mrna remaining at 10 µM worked out at 55%.

Regarding `Cc1nn(C)nc1-c1cc(F)c2c(c1)C(=O)N(c1ccc(N3CCN[C@H](C(C)C)C3)nn1)C2` [Compound 640, (R)-6-(2,5-dimethyl-2H-1,2,3-triazol-4-yl)-4-fluoro-2-(6-(3-isopropylpiperazin-1-yl)pyridazin-3-yl)isoindolin-1-one], the mrna remaining at 1 µM stood at 99% and the mrna remaining at 10 µM stood at 25%.

Take `Cc1nn(C)nc1-c1cc(F)c2c(c1)C(=O)N(c1ccc(N3C[C@@H](C)N[C@@H](C)C3)nn1)C2` [Compound 641, 6-(2,5-dimethyl-2H-1,2,3-triazol-4-yl)-2-(6-((3S,5R)-3,5-dimethylpiperazin-1-yl)pyridazin-3-yl)-4-fluoroisoindolin-1-one]: the mrna remaining at 1 µM was determined as 96% and the mrna remaining at 10 µM was found to be 34%.

With `Cn1nc(Cl)c(-c2cc(F)c3c(c2)C(=O)N(c2ccc(N4CCNC(C)(C)C4)nn2)C3)n1` [Compound 642, 6-(5-chloro-2-methyl-2H-1,2,3-triazol-4-yl)-2-(6-(3,3-dimethylpiperazin-1-yl)pyridazin-3-yl)-4-fluoroisoindolin-1-one], the mrna remaining at 1 µM stood at 91% and the mrna remaining at 10 µM amounted to 21%.

`Cc1nn(C)nc1-c1cc(F)c2c(c1)C(=O)N(c1ccc(N3CCNC(C)(C)C3)nn1)C2` [Compound 643, 6-(2,5-dimethyl-2H-1,2,3-triazol-4-yl)-2-(6-(3,3-dimethylpiperazin-1-yl)pyridazin-3-yl)-4-fluoroisoindolin-1-one]: the mrna remaining at 1 µM came out at 109% and the mrna remaining at 10 µM came out at 72%.

Consider `Cn1nc(Cl)c(-c2cc(F)c3c(c2)C(=O)N(c2ccc(N4CC5(CCNC5)C4)nn2)C3)n1` [Compound 644, 2-(6-(2,6-diazaspiro[3.4]octan-2-yl)pyridazin-3-yl)-6-(5-chloro-2-methyl-2H-1,2,3-triazol-4-yl)-4-fluoroisoindolin-1-one], for which the mrna remaining at 1 µM was determined as 87% and the mrna remaining at 10 µM amounted to 97%.

Consider `Cn1nc(Cl)c(-c2cc(F)c3c(c2)C(=O)N(c2ccc(N4CC5CCC(C4)NC5)nn2)C3)n1` (centres unmarked) [Compound 645], for which the mrna remaining at 1 µM is 87% and the mrna remaining at 10 µM was 104%.

`Cc1nn(C)nc1-c1cc(F)c2c(c1)C(=O)N(c1ccc(N3CCC4(CCNC4)C3)nn1)C2` (centres unmarked) [Compound 646, 2-(6-(2,7-diazaspiro[4.4]nonan-2-yl)pyridazin-3-yl)-6-(2,5-dimethyl-2H-1,2,3-triazol-4-yl)-4-fluoroisoindolin-1-one]: the mrna remaining at 1 µM was determined as 115% and the mrna remaining at 10 µM worked out at 76%.

Consider `CN(C)C1CN(c2ccc(N3Cc4c(F)cc(-c5nn(C)nc5Cl)cc4C3=O)nn2)C1` [Compound 647, 6-(5-chloro-2-methyl-2H-1,2,3-triazol-4-yl)-2-(6-(3-(dimethylamino)azetidin-1-yl)pyridazin-3-yl)-4-fluoroisoindolin-1-one], for which the mrna remaining at 1 µM stood at 119% and the mrna remaining at 10 µM was found to be 86%.

On to `Cc1nn(C)nc1-c1cc(F)c2c(c1)C(=O)N(c1ccc(N3CC[C@@H](NC(C)(C)C)C3)nn1)C2` [Compound 648, (R)-2-(6-(3-(tert-butylamino)pyrrolidin-1-yl)pyridazin-3-yl)-6-(2,5-dimethyl-2H-1,2,3-triazol-4-yl)-4-fluoroisoindolin-1-one], for which the mrna remaining at 1 µM stood at 113% and the mrna remaining at 10 µM worked out at 87%.

For `CC(C)(O)Cn1cc(-c2cc(F)c3c(c2)C(=O)N(c2ccc(OC4CC(C)(C)NC(C)(C)C4)nn2)C3)c(Cl)n1` [Compound 649, 6-(3-chloro-1-(2-hydroxy-2-methylpropyl)-1H-pyrazol-4-yl)-4-fluoro-2-(6-((2,2,6,6-tetramethylpiperidin-4-yl)oxy)pyridazin-3-yl)isoindolin-1-one], the mrna remaining at 1 µM was 106% and the mrna remaining at 10 µM is 63%.

On to `Cc1nn(C)nc1-c1cc(F)c2c(c1)C(=O)N(c1ccc(N3CCNC4(CC4)C3)nn1)C2` [Compound 650, 2-(6-(4,7-diazaspiro[2.5]octan-7-yl)pyridazin-3-yl)-6-(2,5-dimethyl-2H-1,2,3-triazol-4-yl)-4-fluoroisoindolin-1-one], for which the mrna remaining at 1 µM came to 97% and the mrna remaining at 10 µM was 75%.

`Cc1nn(C)nc1-c1cc(F)c2c(c1)C(=O)N(c1ccc(N3CCC4CCC(C3)N4)nn1)C2` (centres unmarked) [Compound 651, 2-(6-(3,9-diazabicyclo[4.2.1]nonan-3-yl)pyridazin-3-yl)-6-(2,5-dimethyl-2H-1,2,3-triazol-4-yl)-4-fluoroisoindolin-1-one]: the mrna remaining at 1 µM amounted to 96% and the mrna remaining at 10 µM is 60%.

On to `Cn1nc(Cl)c(-c2cc(F)c3c(c2)C(=O)N(c2ccc(N4CCC(NC5CC5)C4)nn2)C3)n1` (centres unmarked) [Compound 652, 6-(5-chloro-2-methyl-2H-1,2,3-triazol-4-yl)-2-(6-(3-(cyclopropylamino)pyrrolidin-1-yl)pyridazin-3-yl)-4-fluoroisoindolin-1-one], for which the mrna remaining at 1 µM is 103% and the mrna remaining at 10 µM was 79%.

Regarding `Cn1nc(Cl)c(-c2cc(F)c3c(c2)C(=O)N(c2ccc(N4CC5CCC(C4)N5)nn2)C3)n1` [Compound 653, 2-(6-(3,8-diazabicyclo[3.2.1]octan-3-yl)pyridazin-3-yl)-6-(5-chloro-2-methyl-2H-1,2,3-triazol-4-yl)-4-fluoroisoindolin-1-one], the mrna remaining at 1 µM was found to be 93% and the mrna remaining at 10 µM worked out at 27%.

As for `CCN1CC2CN(c3ccc(N4Cc5c(F)cc(-c6nn(C)nc6Cl)cc5C4=O)nn3)CC2C1` (centres unmarked) [Compound 654, 6-(5-chloro-2-methyl-2H-1,2,3-triazol-4-yl)-2-(6-(5-ethylhexahydropyrrolo[3,4-c]pyrrol-2(1H)-yl)pyridazin-3-yl)-4-fluoroisoindolin-1-one], the mrna remaining at 1 µM worked out at 90% and the mrna remaining at 10 µM came out at 61%.

Regarding `Cn1nc(Cl)c(-c2cc(F)c3c(c2)C(=O)N(c2ccc(N4CC5CC(C4)N5)nn2)C3)n1` [Compound 655, 2-(6-(3,6-diazabicyclo[3.1.1]heptan-3-yl)pyridazin-3-yl)-6-(5-chloro-2-methyl-2H-1,2,3-triazol-4-yl)-4-fluoroisoindolin-1-one], the mrna remaining at 1 µM was determined as 115% and the mrna remaining at 10 µM was determined as 48%.

On to `Cn1nc(Cl)c(-c2cc(F)c3c(c2)C(=O)N(c2ccc(N4CC[C@@H](NC(C)(C)C)C4)nn2)C3)n1` [Compound 656, (R)-2-(6-(3-(tert-butylamino)pyrrolidin-1-yl)pyridazin-3-yl)-6-(5-chloro-2-methyl-2H-1,2,3-triazol-4-yl)-4-fluoroisoindolin-1-one], for which the mrna remaining at 1 µM stood at 70% and the mrna remaining at 10 µM is 43%.

In the case of `Cc1nn(C)nc1-c1cc(F)c2c(c1)C(=O)N(c1ccc(N3CCC(C)(C)NC(C)(C)C3)nn1)C2` [Compound 657, 6-(2,5-dimethyl-2H-1,2,3-triazol-4-yl)-4-fluoro-2-(6-(3,3,5,5-tetramethyl-1,4-diazepan-1-yl)pyridazin-3-yl)isoindolin-1-one], the mrna remaining at 1 µM was determined as 75% and the mrna remaining at 10 µM came out at 26%.
